# Molecular target: hT2R8 (Homo sapiens (Human), UniProt Q9NYW2)
# Assay: hT2R8 antagonist high-throughput FLIPR assay, stable cell line with G16g44, agonist andrographolide
# Type: cell-based
# Conditions: Table A; read-out: hT2R8 IC50
# How it was run: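 HEK293 cells stably co-expressing hT2R8 and chimeric G16g44, read on FLIPR. Test compounds added together with andrographolide (200 μM), which drives the receptor to 70–80% of maximal activity; antagonism seen as reduced agonist response.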
# Chain of hT2R8 (Q9NYW2 whole entry): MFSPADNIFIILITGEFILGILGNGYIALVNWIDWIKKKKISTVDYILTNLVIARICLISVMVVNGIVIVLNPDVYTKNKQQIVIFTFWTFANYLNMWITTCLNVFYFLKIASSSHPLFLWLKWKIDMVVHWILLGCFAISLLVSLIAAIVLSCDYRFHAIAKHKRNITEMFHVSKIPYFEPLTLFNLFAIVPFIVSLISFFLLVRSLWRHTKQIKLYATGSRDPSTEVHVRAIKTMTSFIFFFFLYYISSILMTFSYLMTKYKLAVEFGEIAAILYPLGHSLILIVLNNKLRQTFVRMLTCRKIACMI
row,Structure (SMILES),IC50 [µM]
1,"Cc1nc2cc(C(=O)Nc3cnn(Cc4c(C)noc4C)c3)ccc2[nH]1 [Example 4-79, N-(1-((3,5-dimethylisoxazol-4-yl)methyl)-1H-pyrazol-4-yl)-2-methyl-1H-benzo[d]imidazole-5-carboxamide]",1
2,"CCC(C)CC(=O)Nc1cnn(Cc2c(C)noc2C)c1 (stereo not drawn) [Example 4-60, N-(1-((3,5-dimethylisoxazol-4-yl)methyl)-1H-pyrazol-4-yl)-3-methylpentanamide]",1.94
3,"COc1cccc(C(=O)Nc2cnn(Cc3c(C)noc3C)c2)c1OC [Example 4-25, N-(1-((3,5-dimethylisoxazol-4-yl)methyl)-1H-pyrazol-4-yl)-2,3-dimethoxybenzamide]",0.61
4,"Cc1ccccc1NC(=S)Nc1cnn(Cc2c(C)noc2C)c1 [Example 4-108, 1-(1-((3,5-dimethylisoxazol-4-yl)methyl)-1H-pyrazol-4-yl)-3-o-tolylthiourea]",3.01
5,"Cc1cc(C(=O)Nc2cnn(Cc3c(C)noc3C)c2)c(C)o1 [Example 4-53, N-(1-((3,5-dimethylisoxazol-4-yl)methyl)-1H-pyrazol-4-yl)-2,5-dimethylfuran-3-carboxamide]",3.03
6,"Cc1ccc(C(=O)Nc2cnn(Cc3c(C)noc3C)c2)o1 [Example 4-54, N-(1-((3,5-dimethylisoxazol-4-yl)methyl)-1H-pyrazol-4-yl)-5-methylfuran-2-carboxamide]",3.19
7,"COc1cc(C(=O)Nc2cnn(Cc3c(C)noc3C)c2)ccc1C [Example 4-74, N-(1-((3,5-dimethylisoxazol-4-yl)methyl)-1H-pyrazol-4-yl)-3-methoxy-4-methylbenzamide]",2.2
8,"CNc1cnn(Cc2c(C)noc2C)c1 [Example 4-96, 1-((3,5-dimethylisoxazol-4-yl)methyl)-N-methyl-1H-pyrazol-4-amine]",8.76
9,"Cc1noc(C)c1Cn1cc(NC(=O)c2ccc3nccnc3c2)cn1 [Example 4-82, N-(1-((3,5-dimethylisoxazol-4-yl)methyl)-1H-pyrazol-4-yl)quinoxaline-6-carboxamide]",0.8
10,"Cc1noc(C)c1Cn1cc(NC(=O)c2ccc3c(c2)OCCO3)cn1 [Example 4-88, N-(1-((3,5-dimethylisoxazol-4-yl)methyl)-1H-pyrazol-4-yl)-2,3-dihydrobenzo[b][1,4]dioxine-6-carboxamide]",0.4
11,"COc1ccc(CC(=O)Nc2cnn(Cc3c(C)noc3C)c2)cc1 [Example 4-33, N-(1-((3,5-dimethylisoxazol-4-yl)methyl)-1H-pyrazol-4-yl)-2-(4-methoxyphenyl)acetamide]",0.99

# Same assay, conditions: read-out: IC50 on hT2R8 bitter receptor
row,Structure (SMILES),IC50 [µM]
1,"Cc1noc(C)c1Cn1cc(NC(=O)C2(c3ccccc3)CC2)cn1 [Example 4-11, N-(1-((3,5-dimethylisoxazol-4-yl)methyl)-1H-pyrazol-4-yl)-1-phenylcyclopropanecarboxamide]",0.25
2,"COc1cc(CN2C(=O)N(c3cnn(Cc4c(C)noc4C)c3)C(=O)C2(C)C)ccc1F [Example 12-20, 3-(1-((3,5-dimethylisoxazol-4-yl)methyl)-1H-pyrazol-4-yl)-1-(4-fluoro-3-methoxybenzyl)-5,5-dimethylimidazolidine-2,4-dione]",0.18
3,"Cc1noc(C)c1Cn1cc(N2C(=O)NC(C)(C)C2=O)cn1 [Example 12-16a, 3-(1-((3,5-dimethylisoxazol-4-yl)methyl)-1H-pyrazol-4-yl)-5,5-dimethylimidazolidine-2,4-dione]",2.27
4,"Cc1noc(C)c1Cn1cc(N2C(=O)[C@H](CO)N(Cc3cccc(O)c3)C2=O)cn1 [Example 12-9, (S)-3-(1-((3,5-dimethylisoxazol-4-yl)methyl)-1H-pyrazol-4-yl)-1-(3-hydroxybenzyl)-5-(hydroxymethyl)imidazolidine-2,4-dione]",0.04
5,"COc1cc(C(=O)Nc2cnn(Cc3c(C)noc3C)c2)cc2c1OCCO2 [Example 4-93, N-(1-((3,5-dimethylisoxazol-4-yl)methyl)-1H-pyrazol-4-yl)-8-methoxy-2,3-dihydrobenzo[b][1,4]dioxine-6-carboxamide]",0.7
6,"Cc1noc(C)c1Cn1cc(N2C(=O)NC(CC(=O)Nc3ccccc3)C2=O)cn1 (stereo not drawn) [Example 10-48, 2-(1-(1-((3,5-dimethylisoxazol-4-yl)methyl)-1H-pyrazol-4-yl)-2,5-dioxoimidazolidin-4-yl)-N-phenylacetamide]",0.75
7,"COc1cccc(CCN2CC(=O)N(c3cnn(Cc4c(C)noc4C)c3)C2=O)c1 [Example 10-85, 3-(1-((3,5-dimethylisoxazol-4-yl)methyl)-1H-pyrazol-4-yl)-1-(3-methoxyphenethyl)imidazolidine-2,4-dione]",0.16
8,Cc1noc(C)c1Cn1cc(N2C(=O)CN(CCc3cccc4ccccc34)C2=O)cn1 [Example 10-80],1.27
9,"Cc1noc(C)c1Cn1cc(N2C(=O)[C@H](C(C)C)N(Cc3cccc(O)c3)C2=O)cn1 [Example 12-8, (S)-3-(1-((3,5-dimethylisoxazol-4-yl)methyl)-1H-pyrazol-4-yl)-1-(3-hydroxybenzyl)-5-isopropylimidazolidine-2,4-dione]",0.65
10,"Cc1noc(C)c1Cn1cc(N2C(=O)N(Cc3cccnc3)C(C)(C)C2=O)cn1 [Example 12-36, 3-(1-((3,5-dimethylisoxazol-4-yl)methyl)-1H-pyrazol-4-yl)-5,5-dimethyl-1-(pyridin-3-ylmethyl)imidazolidine-2,4-dione]",0.22
11,"Cc1noc(C)c1Cn1cc(N2C(=O)N/C(=C\c3ccccc3)C2=O)cn1 [Example 10-63, (Z)-5-benzylidene-3-(1-((3,5-dimethylisoxazol-4-yl)methyl)-1H-pyrazol-4-yl)imidazolidine-2,4-dione]",0.34
12,"Cc1noc(C)c1Cn1cc(NC(=O)c2ccc3c(c2)OCO3)cn1 [Example 4-8, N-(1-((3,5-dimethylisoxazol-4-yl)methyl)-1H-pyrazol-4-yl)benzo[d][1,3]dioxole-5-carboxamide]",0.2
13,"COCCn1c(=O)n(-c2cnn(Cc3c(C)noc3C)c2)c(=O)n1Cc1ccccc1 [Example 10-92, 1-benzyl-4-(1-((3,5-dimethylisoxazol-4-yl)methyl)-1H-pyrazol-4-yl)-2-(2-methoxyethyl)-1,2,4-triazolidine-3,5-dione]",0.06

# Same assay, conditions: table after Example 10-97; read-out: hT2R8 IC50
row,Structure (SMILES),IC50 [µM]
1,"Cc1noc(C)c1Cn1cc(N2C(=O)CN(Cc3ccccc3[N+](=O)[O-])C2=O)cn1 [Example 10-23, 3-(1-((3,5-dimethylisoxazol-4-yl)methyl)-1H-pyrazol-4-yl)-1-(2-nitrobenzyl)imidazolidine-2,4-dione]",0.081
2,"Cc1noc(C)c1Cn1cc(N2C(=O)CN(Cc3ccc4c(c3)OCO4)C2=O)cn1 [Example 10-36, 1-(benzo[d][1,3]dioxol-5-ylmethyl)-3-(1-((3,5-dimethylisoxazol-4-yl)methyl)-1H-pyrazol-4-yl)imidazolidine-2,4-dione]",0.053
3,"Cc1noc(C)c1Cn1cc(N2C(=O)NC(CC(=O)Nc3ccccc3)C2=O)cn1 (stereo not drawn) [Example 10-48, 2-(1-(1-((3,5-dimethylisoxazol-4-yl)methyl)-1H-pyrazol-4-yl)-2,5-dioxoimidazolidin-4-yl)-N-phenylacetamide]",0.747
4,"COCCOc1cccc(CN2CC(=O)N(c3cnn(Cc4c(C)noc4C)c3)C2=O)c1 [Example 10-14, 3-(1-((3,5-dimethylisoxazol-4-yl)methyl)-1H-pyrazol-4-yl)-1-(3-(2-methoxyethoxy)benzyl)imidazolidine-2,4-dione]",0.071
5,"COc1cccc(CCN2CC(=O)N(c3cnn(Cc4c(C)noc4C)c3)C2=O)c1 [Example 10-85, 3-(1-((3,5-dimethylisoxazol-4-yl)methyl)-1H-pyrazol-4-yl)-1-(3-methoxyphenethyl)imidazolidine-2,4-dione]",0.158
6,Cc1noc(C)c1Cn1cc(N2C(=O)CN(CCc3cccc4ccccc34)C2=O)cn1 [Example 10-80],0.927
7,"COCCn1c(=O)n(-c2cnn(Cc3c(C)noc3C)c2)c(=O)n1Cc1ccccc1 [Example 10-92, 1-benzyl-4-(1-((3,5-dimethylisoxazol-4-yl)methyl)-1H-pyrazol-4-yl)-2-(2-methoxyethyl)-1,2,4-triazolidine-3,5-dione]",0.057

# Same assay, conditions: table after Example 12-37; read-out: hT2R8 IC50
row,Structure (SMILES),IC50 [µM]
1,"Cc1noc(C)c1Cn1cc(N2C(=O)N(Cc3cccc(F)c3F)C(C)(C)C2=O)cn1 [Example 12-66, 1-(2,3-difluorobenzyl)-3-(1-((3,5-dimethylisoxazol-4-yl)methyl)-1H-pyrazol-4-yl)-5,5-dimethylimidazolidine-2,4-dione]",0.31
2,"COc1ccc(CN2C(=O)N(c3cnn(Cc4c(C)noc4C)c3)C(=O)C2(C)C)cc1C [Example 12-76, 3-(1-((3,5-dimethylisoxazol-4-yl)methyl)-1H-pyrazol-4-yl)-1-(4-methoxy-3-methylbenzyl)-5,5-dimethylimidazolidine-2,4-dione]",0.54
3,"Cc1noc(C)c1Cn1cc(N2C(=O)N(Cc3ccc4c(c3)OCCO4)C(C)(C)C2=O)cn1 [Example 12-62, 1-((2,3-dihydrobenzo[b][1,4]dioxin-6-yl)methyl)-3-(1-((3,5-dimethylisoxazol-4-yl)methyl)-1H-pyrazol-4-yl)-5,5-dimethylimidazolidine-2,4-dione]",0.27
4,"Cc1noc(C)c1Cn1cc(N2C(=O)N(Cc3cccc(OCCO)c3)C(C)(C)C2=O)cn1 [Example 12-63, 3-(1-((3,5-dimethylisoxazol-4-yl)methyl)-1H-pyrazol-4-yl)-1-(3-(2-hydroxyethoxy)benzyl)-5,5-dimethylimidazolidine-2,4-dione]",0.28
5,"COCc1ccc(CN2C(=O)N(c3cnn(Cc4c(C)noc4C)c3)C(=O)C2(C)C)cc1 [Example 12-92, 3-(1-((3,5-dimethylisoxazol-4-yl)methyl)-1H-pyrazol-4-yl)-1-(4-(methoxymethyl)benzyl)-5,5-dimethylimidazolidine-2,4-dione]",0.28
6,"Cc1noc(C)c1Cn1cc(N2C(=O)N(Cc3cccc(C(F)(F)F)c3)C(C)(C)C2=O)cn1 [Example 12-84, 3-(1-((3,5-dimethylisoxazol-4-yl)methyl)-1H-pyrazol-4-yl)-5,5-dimethyl-1-(3-(trifluoromethyl)benzyl)imidazolidine-2,4-dione]",1.54
7,"Cc1noc(C)c1Cn1cc(N2C(=O)N(Cc3ccccc3)C(C)(C)C2=O)cn1 [Example 12-67, 1-benzyl-3-(1-((3,5-dimethylisoxazol-4-yl)methyl)-1H-pyrazol-4-yl)-5,5-dimethylimidazolidine-2,4-dione]",0.32
8,"Cc1noc(C)c1Cn1cc(N2C(=O)N(Cc3ccccc3F)C(C)(C)C2=O)cn1 [Example 12-45, 3-(1-((3,5-dimethylisoxazol-4-yl)methyl)-1H-pyrazol-4-yl)-1-(2-fluorobenzyl)-5,5-dimethylimidazolidine-2,4-dione]",0.11

# Same assay, conditions: unit uM; read-out: IC50 on hT2R08 bitter receptor
row,Structure (SMILES),IC50 [µM]
1,"Cc1noc(C)c1Cn1cc(N2C(=O)CN(Cc3ccccc3[N+](=O)[O-])C2=O)cn1 [Example 10-23, 3-(1-((3,5-dimethylisoxazol-4-yl)methyl)-1H-pyrazol-4-yl)-1-(2-nitrobenzyl)imidazolidine-2,4-dione]",0.07
2,"Cc1noc(C)c1Cn1cc(N2C(=O)CN(Cc3ccc4c(c3)OCO4)C2=O)cn1 [Example 10-36, 1-(benzo[d][1,3]dioxol-5-ylmethyl)-3-(1-((3,5-dimethylisoxazol-4-yl)methyl)-1H-pyrazol-4-yl)imidazolidine-2,4-dione]",0.07
3,"COCCOc1cccc(CN2CC(=O)N(c3cnn(Cc4c(C)noc4C)c3)C2=O)c1 [Example 10-14, 3-(1-((3,5-dimethylisoxazol-4-yl)methyl)-1H-pyrazol-4-yl)-1-(3-(2-methoxyethoxy)benzyl)imidazolidine-2,4-dione]",0.07

# — US9247759B2, “Identification of human T2R receptors that respond to bitter compounds that elicit the bitter taste in compositions, and the use thereof in assays to identify compounds that inhibit (block) bitter taste in compositions and use thereof” (SENOMYX, INC., priority 2007, dated 2016)
